Data on 19 compounds can be found in patent US10259810B2, “N-sulfonylated pyrazolo[3,4-b]pyridin-6-carboxamides and method of use” (AbbVie S.à.r.l., priority 2015, dated 2019).

Test [1] addresses T1, ΔF508-CFTR (Homo sapiens, UniProt P13569, DEL508-508).
T1 construct: host or cells: CFBE41o-, doxycycline-inducible
Nature of the test: CFTR cell surface levels using HRP-tagged ΔF508-CFTR expressing CFBE cells, in the presence of a co-corrector. The format is cell-based. As to conditions: HRP-tagged ΔF508-CFTR CFBE cells, in the presence of 3 μM co-corrector; for EC50: read-out: EC50. The method, boiled down:
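Chemiluminescent read-out of surface HRP (15 min, dark) after PBS washes. Activity is normalized as 100×(sample−DMSO)/(3 μM co-corrector alone−DMSO).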

In test [2] the target is T1, ΔF508-CFTR. Nature of the test: CFTR cell surface levels using HRP-tagged ΔF508-CFTR expressing CFBE cells, intrinsic corrector capacity. The format is cell-based. More on the design: % Activation: concentration or dose not given beside the values. As to conditions: HRP-tagged ΔF508-CFTR expressing CFBE41o- cells, compound alone (intrinsic corrector capacity), 20 hours at 33° C.; for EC50: read-out: EC50. The method, boiled down:
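Surface ΔF508-CFTR was measured as HRP chemiluminescence from an extracellular-loop-4 tag, expressed as percent activity between DMSO and a […] corrector control.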

T1 sequence (P13569 with tags, fused parts or gaps DEL508-508): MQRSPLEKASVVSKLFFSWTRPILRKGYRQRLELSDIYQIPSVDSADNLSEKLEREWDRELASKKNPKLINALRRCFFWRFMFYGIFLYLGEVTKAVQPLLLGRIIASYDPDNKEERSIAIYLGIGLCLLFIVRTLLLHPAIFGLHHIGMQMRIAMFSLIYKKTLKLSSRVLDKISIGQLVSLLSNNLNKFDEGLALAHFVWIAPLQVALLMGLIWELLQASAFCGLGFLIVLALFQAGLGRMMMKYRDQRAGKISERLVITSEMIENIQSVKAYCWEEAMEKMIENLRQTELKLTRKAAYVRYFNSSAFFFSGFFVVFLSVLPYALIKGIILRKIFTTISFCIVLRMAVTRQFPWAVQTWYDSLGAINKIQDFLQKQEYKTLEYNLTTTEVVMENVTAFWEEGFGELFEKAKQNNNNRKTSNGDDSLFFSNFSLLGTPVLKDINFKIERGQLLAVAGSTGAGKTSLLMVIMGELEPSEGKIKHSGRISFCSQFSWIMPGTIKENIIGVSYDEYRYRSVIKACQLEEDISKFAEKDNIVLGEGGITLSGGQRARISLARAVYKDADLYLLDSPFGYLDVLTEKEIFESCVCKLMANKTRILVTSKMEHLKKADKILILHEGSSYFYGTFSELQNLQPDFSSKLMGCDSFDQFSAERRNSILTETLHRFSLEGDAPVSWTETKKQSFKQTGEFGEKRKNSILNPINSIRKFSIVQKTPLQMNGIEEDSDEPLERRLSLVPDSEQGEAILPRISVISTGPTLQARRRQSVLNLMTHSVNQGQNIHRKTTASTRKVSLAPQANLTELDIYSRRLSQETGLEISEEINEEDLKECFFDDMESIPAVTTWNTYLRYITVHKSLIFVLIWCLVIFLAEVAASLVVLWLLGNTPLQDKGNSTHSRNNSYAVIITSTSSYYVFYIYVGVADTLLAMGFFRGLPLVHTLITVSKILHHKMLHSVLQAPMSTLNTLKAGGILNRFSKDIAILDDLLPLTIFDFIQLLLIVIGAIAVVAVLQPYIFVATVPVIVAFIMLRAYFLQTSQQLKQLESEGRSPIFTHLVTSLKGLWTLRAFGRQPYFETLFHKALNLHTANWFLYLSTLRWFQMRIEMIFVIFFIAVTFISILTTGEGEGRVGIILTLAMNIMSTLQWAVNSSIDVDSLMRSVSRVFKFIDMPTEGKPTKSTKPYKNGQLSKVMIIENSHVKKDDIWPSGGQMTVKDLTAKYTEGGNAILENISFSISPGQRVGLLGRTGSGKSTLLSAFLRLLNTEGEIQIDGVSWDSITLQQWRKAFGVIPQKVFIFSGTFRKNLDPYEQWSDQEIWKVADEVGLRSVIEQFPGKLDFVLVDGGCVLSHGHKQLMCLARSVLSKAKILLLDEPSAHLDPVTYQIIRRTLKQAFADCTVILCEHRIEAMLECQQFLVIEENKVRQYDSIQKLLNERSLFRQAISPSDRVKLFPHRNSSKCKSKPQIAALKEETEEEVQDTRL

As a reminder, the EC50 is the concentration at which the effect is half-maximal. On to `COC1CCCN(c2cc(C(=O)NS(C)(=O)=O)nc3c2c(C(C)C)nn3-c2cccc(C)c2)C1` (stereo not shown) [Compound 162, N-(methanesulfonyl)-4-(3-methoxypiperidin-1-yl)-1-(3-methylphenyl)-3-(propan-2-yl)-1H-pyrazolo[3,4-b]pyridine-6-carboxamide], for which, on ΔF508-CFTR [1], the “% Activation” value came out at 331.53% and the EC50 was found to be 304 nM. In addition, on ΔF508-CFTR [2], the “% Activation” value came to 169% and the EC50 stood at 445 nM.
For `CCS(=O)(=O)NC(=O)c1cc(N2CCCC(OC)C2)c2c(C(C)C)nn(-c3cccc(C)c3)c2n1` (stereo not shown) [Compound 163, N-(ethanesulfonyl)-4-(3-methoxypiperidin-1-yl)-1-(3-methylphenyl)-3-(propan-2-yl)-1H-pyrazolo[3,4-b]pyridine-6-carboxamide], on ΔF508-CFTR [1], the “% Activation” value came to 342.3% and the EC50 was determined as 112 nM. In addition, at ΔF508-CFTR [2], the “% Activation” value turned out to be 175.4% and the EC50 turned out to be 442 nM.
In the same order, the values of `Cc1cccc(-n2nc(C(C)C)c3c(N4CCC(CF)CC4)cc(C(=O)NS(C)(=O)=O)nc32)c1` [Compound 164, 4-[4-(fluoromethyl)piperidin-1-yl]-N-(methanesulfonyl)-1-(3-methylphenyl)-3-(propan-2-yl)-1H-pyrazolo[3,4-b]pyridine-6-carboxamide] are 492.45%, 388 nM, 295.25% and 594 nM.
In the same order, the values of `Cc1cccc(-n2nc(C(C)C)c3c(N4CCC(S(C)(=O)=O)CC4)cc(C(=O)NS(C)(=O)=O)nc32)c1` [Compound 165, N-(methanesulfonyl)-4-[4-(methanesulfonyl)piperidin-1-yl]-1-(3-methylphenyl)-3-(propan-2-yl)-1H-pyrazolo[3,4-b]pyridine-6-carboxamide] are 534.2%, 885 nM, 373.95% and 1780 nM.
The matching figures for `CC(C)Oc1nn(-c2ccccc2)c2nc(C(=O)NS(C)(=O)=O)cc(-c3ccc(N4CCOCC4)cc3)c12` [Compound 166, N-(methanesulfonyl)-4-[4-(morpholin-4-yl)phenyl]-1-phenyl-3-[(propan-2-yl)oxy]-1H-pyrazolo[3,4-b]pyridine-6-carboxamide]: 408.53%, 310 nM, 235.2% and 439 nM.
In the case of `COCCN(C)c1cc(C(=O)NS(C)(=O)=O)nc2c1c(C(C)C)nn2-c1cccc(C)c1` [Compound 170, N-(methanesulfonyl)-4-[(2-methoxyethyl)(methyl)amino]-1-(3-methylphenyl)-3-(propan-2-yl)-1H-pyrazolo[3,4-b]pyridine-6-carboxamide], the “% Activation” value came to 425.6% on ΔF508-CFTR [1] and 213.5% at ΔF508-CFTR [2]. The EC50 at ΔF508-CFTR [1] was found to be 722 nM; on ΔF508-CFTR [2] it was 975 nM.
In the same order, the values of `Cc1cccc(-n2nc(C(C)C)c3c(N4CCC5(CCOCC5)C4)cc(C(=O)NS(C)(=O)=O)nc32)c1` [Compound 171, N-(methanesulfonyl)-1-(3-methylphenyl)-4-(8-oxa-2-azaspiro[4.5]decan-2-yl)-3-(propan-2-yl)-1H-pyrazolo[3,4-b]pyridine-6-carboxamide] are 289.23%, 143.4%, 312 nM and 787 nM.
In the same order, the values of `CCCCOC1CCN(c2cc(C(=O)NS(C)(=O)=O)nc3c2c(C(C)C)nn3-c2ccc(F)cc2)CC1` [Compound 172, 4-(4-butoxypiperidin-1-yl)-1-(4-fluorophenyl)-N-(methanesulfonyl)-3-(propan-2-yl)-1H-pyrazolo[3,4-b]pyridine-6-carboxamide] are 462.4%, 280.03%, 207 nM and 330 nM.
In the same order, the values of `COC1(C)CCN(c2cc(C(=O)NS(C)(=O)=O)nc3c2c(C(C)C)nn3-c2ccc(F)cc2)CC1` [Compound 173, 1-(4-fluorophenyl)-N-(methanesulfonyl)-4-(4-methoxy-4-methylpiperidin-1-yl)-3-(propan-2-yl)-1H-pyrazolo[3,4-b]pyridine-6-carboxamide] are 183.2%, 51.395%, 433 nM and 412 nM.
Consider `COC1CCN(c2cc(C(=O)NS(=O)(=O)CCNC(=O)c3ccccc3C(=O)O)nc3c2c(C2CCC2)nn3-c2ccccc2)CC1` [Compound 174, 2-[(2-{[3-cyclobutyl-4-(4-methoxypiperidin-1-yl)-1-phenyl-1H-pyrazolo[3,4-b]pyridine-6-carbonyl]sulfamoyl}ethyl)carbamoyl]benzoic acid], for which, at ΔF508-CFTR [1], the “% Activation” value amounted to 545% and the 50% effective concentration (EC50) amounted to 468 nM. At ΔF508-CFTR [2], the “% Activation” value is listed as 347.9% and the EC50 amounted to 754 nM.
With `CC(C)COC1CCN(c2cc(C(=O)NS(C)(=O)=O)nc3c2c(C(C)C)nn3-c2ccc(F)cc2)CC1` [Compound 175, 1-(4-fluorophenyl)-N-(methanesulfonyl)-4-[4-(2-methylpropoxy)piperidin-1-yl]-3-(propan-2-yl)-1H-pyrazolo[3,4-b]pyridine-6-carboxamide], on ΔF508-CFTR [1], the “% Activation” value worked out at 461.1% and the EC50 worked out at 200 nM. At ΔF508-CFTR [2], the “% Activation” value was found to be 270.5% and the EC50 was determined as 337 nM.
In the same order, the values of `COC1CCN(c2cc(C(=O)NS(=O)(=O)CC(F)(F)F)nc3c2c(C2CCC2)nn3-c2ccccc2)CC1` [Compound 176, 3-cyclobutyl-4-(4-methoxypiperidin-1-yl)-1-phenyl-N-(2,2,2-trifluoroethanesulfonyl)-1H-pyrazolo[3,4-b]pyridine-6-carboxamide] are 390.43%, 209 nM, 190.4% and 337 nM.
In the same order, the values of `CC(C)c1nn(-c2ccc(F)cc2)c2nc(C(=O)NS(C)(=O)=O)cc(N3CCCC(C(F)F)C3)c12` (stereo not shown) [Compound 178, 4-[3-(difluoromethyl)piperidin-1-yl]-1-(4-fluorophenyl)-N-(methanesulfonyl)-3-(propan-2-yl)-1H-pyrazolo[3,4-b]pyridine-6-carboxamide] are 381.73%, 232 nM, 202.8% and 347 nM.
On to `CC(C)c1nn(-c2ccc(F)cc2)c2nc(C(=O)NS(C)(=O)=O)cc(N3CC4(CCCOC4)C3)c12` [Compound 179, 1-(4-fluorophenyl)-N-(methanesulfonyl)-4-(6-oxa-2-azaspiro[3.5]nonan-2-yl)-3-(propan-2-yl)-1H-pyrazolo[3,4-b]pyridine-6-carboxamide], for which the “% Activation” value on ΔF508-CFTR [1] is 248.85%; on ΔF508-CFTR [2] it was 89.165%. Besides, the results for the EC50 at ΔF508-CFTR [1] and on ΔF508-CFTR [2] were 406 nM and 879 nM, respectively.
In the same order, the values of `CC(C)c1nn(-c2ccc(F)cc2)c2nc(C(=O)NS(C)(=O)=O)cc(N3CCC4(CCCO4)CC3)c12` [Compound 180, 1-(4-fluorophenyl)-N-(methanesulfonyl)-4-(1-oxa-8-azaspiro[4.5]decan-8-yl)-3-(propan-2-yl)-1H-pyrazolo[3,4-b]pyridine-6-carboxamide] are 290.53%, 129.5%, 300 nM and 570 nM.
In the same order, the values of `CS(=O)(=O)NC(=O)c1cc(OCC2CCCCC2)c2c(C3CCC3)nn(-c3ccccc3)c2n1` [Compound 181, 3-cyclobutyl-4-(cyclohexylmethoxy)-N-(methanesulfonyl)-1-phenyl-1H-pyrazolo[3,4-b]pyridine-6-carboxamide] are 357.93%, 137.73%, 435 nM and 398 nM.
With `COCCC1CCN(c2cc(C(=O)NS(C)(=O)=O)nc3c2c(C2CCC2)nn3-c2ccccc2)CC1` [Compound 183, 3-cyclobutyl-N-(methanesulfonyl)-4-[4-(2-methoxyethyl)piperidin-1-yl]-1-phenyl-1H-pyrazolo[3,4-b]pyridine-6-carboxamide], the “% Activation” value at ΔF508-CFTR [1] came out at 498.57%; at ΔF508-CFTR [2] it was 302%. In addition, the EC50 on ΔF508-CFTR [1] worked out at 214 nM; on ΔF508-CFTR [2] it was 389 nM.
The matching figures for `CS(=O)(=O)NC(=O)c1cc(N2CC3(CCCC3)C2)c2c(C3CCC3)nn(-c3ccccc3)c2n1` [Compound 184, 4-(2-azaspiro[3.4]octan-2-yl)-3-cyclobutyl-N-(methanesulfonyl)-1-phenyl-1H-pyrazolo[3,4-b]pyridine-6-carboxamide]: 282.7%, 95.405%, 574 nM and 719 nM.
The matching figures for `CS(=O)(=O)NC(=O)c1cc(N2CC3CC3C2)c2c(C3CCC3)nn(-c3ccccc3)c2n1` (stereo not shown) [Compound 186, 4-(3-azabicyclo[3.1.0]hexan-3-yl)-3-cyclobutyl-N-(methanesulfonyl)-1-phenyl-1H-pyrazolo[3,4-b]pyridine-6-carboxamide]: 381.87%, 209.57%, 531 nM and 616 nM.
